Measured values as given in patent publication US12162918B2, “Periostin compounds for the treatment of haematological complications” (Chemotherapeutisches Forschungsinstitut Georg-Speyer-Haus, priority 2018, dated 2024).
Entries after “also recorded” stand apart in the source; their conditions may differ.

What was measured:
wildtype mice = assay: Complete blood count and flow cytometry of peripheral blood and bone marrow of treated mice; type: in vivo; conditions: for absolute number of monocytes in peripheral blood / absolute number of leukocytes in peripheral blood: 14 days after initiation
Procedure: 0.5 mg/kg/d or 0.05 mg/kg/d of warfarin, resuspended in phosphate-buffered saline was administered to mice via subcutaneously implanted osmotic minipumps (ALZET minipumps, Cupertino, CA). The osmotic minipumps were changed after 14 days (if the experiment went beyond 14 days of treatment). Sham operated (skin incision and suture) mice served as controls. Warfarin treatment continued for 10-14 days. In the xenotransplantation experiments the mice were treated with warfarin via the drinking water (or normal drinking water) at a dose of 0.72 mg/100 ml for a total of 3 days a week (Pfeilschifter et al., 2011).
5-fluorouracil was intraperitoneally injected every week at a dose of 75 mg/kg for a total of 4 doses or as a one time dose of 200 mg/kg. Recombinant mouse periostin (R&D Systems, Minneapolis, MN, cat. no. 2955-F2), produced in the Sf21 (baculovirus)-derived insect cell line, was administered intravenously at a dose of 2-4 μg per day and vitamin K was given at a dose of 15 mg/kg by oral gavage for four consecutive days.
We assessed the complete blood count of vehicle or warfarin-treated mice using a complete blood count analyzer (Scil Vet ABC, Gurnee, IL). Peripheral blood and bone marrow samples were stained with antibodies for flow cytometry, which was performed on a BD LSR Fortessa (BD Biosciences, Heidelberg, Germany). The lineage antibody cocktail contained antibodies to B220, CD5, Ter119, F4/80 and CD11b. Engraftment of human cells in NSG mice was assessed using anti-human CD45 (BD Biosciences, San José, CA).

HSPC = assay: Methylcellulose colony assay of BM cells from treated mice; type: cell-based; conditions: from warfarin-treated vs control mice, P=0.02
Excerpt: For the methylcellulose colony assays, we plated 10,000 total BM cells from vehicle- or warfarin-treated mice in methylcellulose (M3434, Stem Cell Technologies, Vancouver, Canada). We scored colonies after 10 days.

distal femora = assay: Bone histomorphometry of distal femora; type: in vivo, mice
Excerpt: The femora were isolated and first fixed in 4% paraformaldehyde at 4C overnight and then in 70% ethanol for an additional 5 days. Fixed bones were dehydrated in graded ethanol, then embedded in methyl methacrylate without demineralization. Undecalcified 5 μm thick longitudinal sections were obtained using a microtome (RM2255, Leica Biosystem, IL, USA). The sections were stained with Goldner Trichrome and at least two consecutive sections per specimen were examined for measurements of cellular parameters. A standard histomorphometric analysis of the femur methaphysis was performed using the Osteomeasure analysis system (Osteometrics Inc, Decatur, GA, USA). Measurements were performed 200 μm below the distal growth plate. The observer was blinded to the experimental group at the time of measurement. The cellular parameters were calculated and expressed according to the standardized nomenclature (Dempster et al., 2013).

murine stroma cells = assay: Differentiation, gene expression and apoptosis of stroma and calvaria cells in presence of warfarin; type: cell-based
Procedure: Concentrations of drugs for in vitro use were 2 μM for warfarin, 2 μg/ml for periostin, 5 μM for the AKT inhibitor MK-2206 (Selleck Chemicals, Houston, TX) and cilengitide (Selleck Chemicals, Houston, TX, Cat. No. #S7077) was used at 0.05 μM. Phosphate buffered saline served as the vehicle control.
Bones from mice were crushed and plated and hematopoietic cells were removed the following day. As described (Mukherjee et al., 2008), after reaching confluence the stroma cells were cultured in α-MEM medium containing 10 mM β-glycerolphosphate, 10 nM dexamethasone and 50 μg/ml ascorbic acid for differentiation into osteoblastic cells (Mukherjee et al., 2008) or 500 nM insulin and 100 nM dexamethasone for differentiation into adipocytes. Differentiation was tested after 14-20 days by staining for von Kossa in the case of osteoblastic cells and Oil Red O in the case of adipocytes following standard staining protocols. Osteoclasts were purified from bone marrow macrophages, following standard protocols. Briefly, bone marrow cells were isolated from the femora and tibiae of 6-8 week old C57/B16 animals and cultured overnight at 37 C in α-MEM medium containing 10% fetal bovine serum and 1% antibiotic/antimycotic. The following day non-adherent cells were collected and separated by centrifugation on 50% Ficoll-Paque. Bone marrow-derived macrophages were seeded at 20,000 cells/well and cultured for 3 days in the presence of macrophage colony-stimulating factor (M-CSF) (50 ng/ml). On day 4 cells were also treated with receptor activator of nuclear factor kappa-B ligand (RANKL) (50 ng/ml) for an additional 4-5 days prior to tartrate-resistant acid phosphatase (TRAP) staining. Cells were treated with vehicle or warfarin (2 μM) for the entire culture period. […]
Quantitative PCR was performed using standard protocols.

Lin− cells = assay: Plating of warfarin-exposed Lin− cells on untreated versus warfarin-treated stroma, with or without MK-2206; type: cell-based, mice
Actin DsRed+ Lin− cells = assay: Intrafemoral cotransplantation of treated murine stroma cells with untreated Lin− cells; type: in vivo, mice; conditions: cotransplanted with warfarin- vs vehicle-treated stroma
Procedure: For the intrafemoral co-transplantation experiments 0.8×10^5 human CD34+ cells or 1×10^5 Lin− cells from Actin-DsRed reporter mice were mixed with 5×10^5 human or murine stroma cells which had been expanded in vitro and pretreated with vehicle or 2 μM warfarin for 14 days. The human stromal cells had been obtained via flushing of discarded bones from the orthopedic operating room, as approved of by the local ethics committee.

F4/80+ macrophages = assay: Macrophage coculture assay and periostin in macrophage conditioned medium; type: cell-based, mice
Excerpt: For the macrophage coculture assay F4/80+ macrophages were sorted from the bone marrow of control or warfarin-treated mice, plated and cocultured with 20,000-30,000 Lin− BM cells as from the following day.

periostin = assay: Anti-Gla coimmunoprecipitation of conditioned medium from stroma cells; type: cell-based, mice; conditions: warfarin-treated stroma cells, anti-gla antibody

With `CC(=O)CC(c1ccccc1)c1c(O)c2ccccc2oc1=O` (stereo not shown) [warfarin] as the compound, how does the “absolute count and percentage of LKS, LKS SLAM and myeloid progenitor cells in the bone marrow” value (wildtype mice; 2 and 4 weeks, controls vs warfarin-treated mice) read?
The value was “did not significantly differ”.

What about the “time at which the decrease in leukocytes and monocytes appeared” value (wildtype mice; after initiation of treatment) of the same compound?
The value was “as early as three days”.

And the “absolute number of monocytes in peripheral blood” value (wildtype mice; higher dose (0.5 mg/kg), P=0.007)?
Its value is “reduced”.

And the “absolute number of leukocytes in peripheral blood” value (wildtype mice; higher dose (0.5 mg/kg), P=0.008)?
Its value is “reduced”.

And the “absolute number of leukocytes in peripheral blood” value (wildtype mice; lower dose (0.05 mg/kg))?
The value was “reduced”.

And the “absolute number of monocytes in peripheral blood” value (wildtype mice; lower dose (0.05 mg/kg))?
Its value is “reduced”.

And the “leukocyte and monocyte counts, oral versus subcutaneous administration” value (wildtype mice; oral versus subcutaneous)?
Its value is “similarly reduced”.

What about the lethal hemorrhagic complications (wildtype mice; subcutaneous versus oral treatment) of the same compound?
The lethal hemorrhagic complications was “fewer lethal hemorrhagic complications”.

What about the lymphocyte count (wildtype mice; warfarin-treated mice) of the same compound?
Its lymphocyte count is “decreased, albeit to a lesser extent than myeloid cells”.

What about the “percentage of CD11b+ myeloid cells in peripheral blood” value (wildtype mice; warfarin-treated vs control mice, P=0.003) of the same compound?
The value was “decreased”.

And the “colony-forming ability of HSPC” value (HSPC)?
Its value is “significantly impaired”.

And the “ratio of bone volume/tissue volume (BV/TV)” value (distal femora; P<0.001)?
The value was “decreased”.

And the “number of osteoblasts (N.Ob/B.Pm)” value (distal femora; P=0.0001)?
The value was “significantly increased”.

And the “osteoblast surface (Ob.S/BS)” value (distal femora; P=0.0008)?
Its value is “significantly increased”.

What about the “osteoclast surface (Oc.S/BS)” value (distal femora; P=0.01) of the same compound?
The value was “significantly increased”.

What about the “osteoid volume (OV/BV)” value (distal femora; P=0.046) of the same compound?
The value was “significantly increased”.

And the cancellous bone mass (distal femora; distal femora, warfarin-treated vs control mice)?
Its cancellous bone mass is “dramatic reduction; also recorded: significant reduction”.

What about the “osteoclast differentiation or number (N.Oc/B.Pm)” value (distal femora; mouse, in vivo) of the same compound?
Its value is “absence of changes”.

What about the “trabecular number and thickness” value (distal femora; mouse, in vivo) of the same compound?
Its value is “reduced”.

What about the trabecular separation (distal femora; mouse, in vivo) of the same compound?
The trabecular separation was “increased”.

And the “apoptosis of stroma cells in vitro” value (murine stroma cells; P=0.05)?
The value was “modest, but significant increase”.

And the “differentiation of murine stroma cells to adipocytes and osteoblasts” value (murine stroma cells; in presence of warfarin)?
Its value is “significantly compromised”.

And the “relative expression of osteoblastic genes (Runx2, Alpl, Col1a1, Osx, Spp1, Bglap and others)” value (murine stroma cells; primary calvaria cells, warfarin vs vehicle)?
The value was “significantly reduced”.

What about the “number of pAKT+ Lin− cells” value (Lin− cells; previously warfarin-exposed Lin− cells on untreated stroma, P=0.02) of the same compound?
Its value is “increased”.

What about the “number of hematopoietic cells” value (Lin− cells; warfarin-treated Lin− cells on untreated compared to warfarin-treated stroma, P=0.009) of the same compound?
The value was “increased number”.

What about the “percentage of Lin− cells in the S/G2/M phases” value (Lin− cells; warfarin-treated Lin− cells on untreated compared to warfarin-treated stroma, P=0.02) of the same compound?
The value was “increase”.

And the “engraftment of donor-derived myeloid cells” value (Actin DsRed+ Lin− cells; P=0.023)?
The value was “decreased engraftment”.

And the “engraftment of total donor bone marrow” value (Actin DsRed+ Lin− cells; P=0.025)?
The value was “decreased engraftment”.

What about the “percentage of Annexin V+ apoptotic leukocytes” value (F4/80+ macrophages; untreated Lin− cells on warfarin-treated sorted F4/80+ macrophages, P=0.034) of the same compound?
Its value is “increased”.

And the “total periostin levels in conditioned medium from macrophages” value (F4/80+ macrophages; vehicle- versus warfarin-treated macrophages, coimmunoprecipitation)?
The value was “no significant reduction”.

And the “γ-carboxylated periostin in conditioned medium” value (periostin)?
Its value is “no γ-carboxylated periostin could be detected”.
